Counter-ions that a name gives are not always drawn.
These molecules were tested on K562 cell line (assay: MTT assay: cytotoxicity against the K562 cell line). Conditions: Homo sapiens, K562 cells, 72 h, growth inhibition.
Type: cell-based
Description: Assessment of Cell Viability via MTT Assay: Cytotoxicity of compounds against the K562 cell line was assessed using the [3-(4,5-dimethylthiazol-2-yl)-2,5-diphenyl tetrazolium bromide] (MTT) assay. Fifteen thousand tumor cells were seeded into wells of flat-bottomed 96-well plates. An amount of 2 μL of a dilution series of each compound dissolved in DMSO was added to 198 μL of appropriate growth medium at three replicates per concentration and the plates were incubated in a 5% CO2 incubator at 37° C. After 72 h, the number of metabolically active cells was determined by MTT assay. Absorbance of each well was measured at 550 nm on a Tecan Sunrise reader. Dose-response curves for growth inhibition were generated as a percentage of untreated control. IC50 was determined by nonlinear regression (Prism, Graph Pad Software, Inc.).

Point of comparison: `CCOc1ccc2c(C(=O)c3cc(OC)c(OC)c(OC)c3)cncc2c1OC(=O)C(C)(C)C` [Compound 109, 7-Ethoxy-4-(3,4,5-trimethoxybenzoyl)isoquinolin-8-yl pivalate], IC50 67.9 nM. Against it:
- CCOc1ccc2c(Cc3cc(OC)c(OC)c(OC)c3)cncc2c1NS(=O)(=O)NC(=O)OC(C)(C)C [Compound 7, tert-butyl N-(7-ethoxy-4-(3,4,5-trimethoxybenzyl)isoquinolin-8-yl)sulfamoylcarbamate] — 2.2-fold higher, 147 nM
- CCOc1c(OC)cc(Cc2cncc3c(OC)c(OC)ccc23)cc1OC [Compound 9, 4-(4-Ethoxy-3,5-dimethoxybenzyl)-7,8-dimethoxyisoquinoline hydrochloride] — 5.5-fold higher, 376 nM
- CCOc1ccc2c(Cc3cc(OC)c(OCC)c(OC)c3)cncc2c1 [Compound 13, 7-Ethoxy-4-(4-ethoxy-3,5-dimethoxybenzyl)isoquinoline hydrochloride] — 5.1-fold higher, 349 nM
- CCOc1ccc2c(Cc3cc(OC)c(OC)c(OC)c3)cncc2c1 [Compound 16, 4-(3,4,5-Trimethoxybenzyl)-7-ethoxyisoquinoline hydrochloride] — 6.4-fold higher, 435 nM
- CCOc1ccc2c(Cc3cc(OC)c(OCCOC)c(OC)c3)cncc2c1O [Compound 22, 4-(4-(2-Methoxyethoxy)-3,5-dimethoxybenzyl)-7-ethoxyisoquinolin-8-ol hydrochloride] — 2.1-fold higher, 142 nM
- COc1ccc2c(Cc3cc(OC)c(OC)c(OC)c3)cncc2c1 [Compound 27, 4-(3,4,5-Trimethoxybenzyl)-7-methoxyisoquinoline hydrochloride] — 13-fold higher, 864 nM
- CCOc1ccc2c(Cc3cc(OC)c(OCC4CCC4)c(OC)c3)cncc2c1O [Compound 34, 4-(4-(Cyclobutylmethoxy)-3,5-dimethoxybenzyl)-7-ethoxyisoquinolin-8-ol hydrochloride] — within 1.5-fold, 65 nM
- CCOc1ccc2c(Cc3cc(OC)c(OCC(CC)CC)c(OC)c3)cncc2c1O [Compound 37, 7-Ethoxy-4-(4-(2-ethylbutoxy)-3,5-dimethoxybenzyl)isoquinolin-8-ol hydrochloride] — 13-fold higher, 899 nM
- CCOc1ccc2c(Cc3cc(OC)c(OCC(C)(C)C)c(OC)c3)cncc2c1O [Compound 39, 4-(3,5-Dimethoxy-4-(neopentyloxy)benzyl)-7-ethoxyisoquinolin-8-ol hydrochloride] — 5.9-fold higher, 400 nM
- CCOc1ccc2c(C(=NO)c3cc(OC)c(OC)c(OC)c3)cncc2c1 [Compound 41, (7-ethoxyisoquinolin-4-yl)(3,4,5-trimethoxyphenyl)methanone oxime hydrochloride] — 1.8-fold higher, 123 nM
- CCOc1ccc2c(C(=S)c3cc(OC)c(OC)c(OC)c3)cncc2c1 [Compound 42, (7-Ethoxyisoquinolin-4-yl)(3,4,5-trimethoxyphenyl)methanethione hydrochloride] — within 1.5-fold, 60.7 nM
- CCOc1ccc2c(Cc3cc(OC)c(OCC)c(OC)c3)cncc2c1OC [Compound 46, 7-Ethoxy-4-(4-ethoxy-3,5-dimethoxybenzyl)-8-methoxyisoquinoline hydrochloride] — 10-fold higher, 688 nM
- CCOc1ccc2c(C(=O)c3cc(OC)c(OCC)c(OC)c3)cncc2c1OC [Compound 47, (4-Ethoxy-3,5-dimethoxyphenyl)-(7-ethoxy-8-methoxyisoquinolin-4-yl)-methanone hydrochloride] — 1.9-fold higher, 129 nM
- CCOc1ccc2c(Cc3cc(OC)c(OCC(=O)OC)c(OC)c3)cncc2c1O [Compound 48, Methyl 2-(4-((7-ethoxy-8-hydroxyisoquinolin-4-yl)methyl)-2,6-dimethoxyphenoxy)acetate hydrochloride] — 12-fold higher, 812 nM
- CCOc1ccc2c(Cc3cc(OC)c(OCC#N)c(OC)c3)cncc2c1O [Compound 50, 2-(4-((7-Ethoxy-8-hydroxyisoquinolin-4-yl)methyl)-2,6-dimethoxyphenoxy)acetonitrile hydrochloride] — within 1.5-fold, 69.8 nM
- CCOc1ccc2c(Cc3cc(OC)c(NCc4ccccc4)c(OC)c3)cncc2c1O [Compound 51, 4-(4-(Benzylamino)-3,5-dimethoxybenzyl)-7-ethoxyisoquinolin-8-ol hydrochloride] — 11-fold higher, 741 nM
- CCOc1ccc2c(Cc3cc(OC)c(Nc4ccccc4)c(OC)c3)cncc2c1O [Compound 52, 4-(3,5-Dimethoxy-4-(phenylamino)benzyl)-7-ethoxyisoquinolin-8-ol hydrochloride] — 1.7-fold higher, 118 nM
- CCOc1ccc2c(C(=O)c3cc(OC)c(OCC)c(OC)c3)cncc2c1OCc1ccccc1 [Compound 55, (8-(Benzyloxy)-7-ethoxyisoquinolin-4-yl)(4-ethoxy-3,5-dimethoxyphenyl)methanone] — 6.2-fold higher, 422 nM
- CCCCCOc1c(OC)cc(Cc2cncc3c(O)c(OCC)ccc23)cc1OC [Compound 63, 4-(3,5-Dimethoxy-4-(pentyloxy)benzyl)-7-ethoxyisoquinolin-8-ol hydrochloride] — 3.1-fold higher, 213 nM
- CCCOc1c(OC)cc(Cc2cncc3c(OC(=S)N(C)C)c(OCC)ccc23)cc1OC [Compound 68, O-(4-(3,5-Dimethoxy-4-propoxybenzyl)-7-ethoxyisoquinolin-8-yl) dimethylcarbamothioate hydrochloride] — 2.2-fold higher, 152 nM
- CCOc1ccc2c(Cc3cc(Cl)c(OC)c(Cl)c3)cncc2c1O [Compound 69, 4-(3,5-Dichloro-4-methoxybenzyl)-7-ethoxyisoquinolin-8-ol hydrochloride] — 3.5-fold higher, 238 nM
- CCOc1ccc2c(Cc3cc(I)c(OC)c(I)c3)cncc2c1O [Compound 70, 4-(3,5-Diiodo-4-methoxybenzyl)-7-ethoxyisoquinolin-8-ol hydrochloride] — within 1.5-fold, 92.8 nM
- CCOc1ccc2c(Cc3cc(Br)c(OC)c(OC)c3)cncc2c1O [Compound 71, 4-(3-Bromo-4,5-dimethoxybenzyl)-7-ethoxyisoquinolin-8-ol hydrochloride] — 2.6-fold lower, 26 nM
- CCOc1ccc2c(Cc3cc(I)c(OC)c(OC)c3)cncc2c1O [Compound 72, 7-Ethoxy-4-(3-iodo-4,5-dimethoxybenzyl)isoquinolin-8-ol hydrochloride] — 3.7-fold lower, 18.3 nM
- CCOc1ccc2c(Cc3cc(OC)c(CC)c(OC)c3)cncc2c1O [Compound 73, 7-Ethoxy-4-(4-ethyl-3,5-dimethoxybenzyl)isoquinolin-8-ol hydrochloride] — 4.9-fold higher, 335 nM
- CCOc1ccc2c(Cc3cc(OC)c(OCC)c([N+](=O)[O-])c3)cncc2c1O [Compound 74, 7-ethoxy-4-(4-ethoxy-3-methoxy-5-nitrobenzyl)isoquinolin-8-ol hydrochloride] — 3.5-fold higher, 238 nM
- CCOc1ccc2c(Cc3cc(N)c(OCC)c(OC)c3)cncc2c1O [Compound 75, 4-(3-Amino-4-ethoxy-5-methoxybenzyl)-7-ethoxyisoquinolin-8-ol hydrochloride] — 3.5-fold higher, 236 nM
- CCOc1ccc2c(Cc3cc(OC)c(N4CCCC4)c(OC)c3)cncc2c1O [Compound 76, 4-(3,5-Dimethoxy-4-(pyrrolidin-1-yl)benzyl)-7-ethoxyisoquinolin-8-ol hydrochloride] — 4.6-fold higher, 312 nM
- CCOc1ccc2c(Cc3cc(Br)c(OCC)c(OC)c3)cncc2c1O [Compound 77, 4-(3-Bromo-4-ethoxy-5-methoxybenzyl)-7-ethoxyisoquinolin-8-ol hydrochloride] — within 1.5-fold, 48.6 nM
- CCOc1ccc2c(C(=O)c3cc(OC)c(OCC(C)C)c(OC)c3)cncc2c1O [Compound 79, (7-Ethoxy-8-hydroxyisoquinolin-4-yl)(4-isobutoxy-3,5-dimethoxyphenyl)methanone hydrochloride] — 5.6-fold lower, 12.1 nM
- CCOc1ccc2c(Cc3cc(OC)c(OC)c(OCC(F)(F)F)c3)cncc2c1O [Compound 87, 4-(3,4-Dimethoxy-5-(2,2,2-trifluoroethoxy)benzyl)-7-ethoxyisoquinolin-8-ol hydrochloride] — 3.7-fold higher, 254 nM
- CCOc1ccc2c(Cc3cc(OC)c(OC)c(OC)c3)cncc2c1NC [Compound 92, 7-Ethoxy-N-methyl-4-(3,4,5-trimethoxybenzyl)isoquinolin-8-amine dihydrochloride] — 14-fold higher, 943 nM
- CCOc1ccc2c(Cc3cc(OC)c(OC)c(OC)c3)cncc2c1NCC(=O)OC [Compound 93, Methyl 2-(7-ethoxy-4-(3,4,5-trimethoxybenzyl)isoquinolin-8-ylamino)acetate dihydrochloride] — 4.9-fold higher, 334 nM
- C=C(c1cc(OC)c(OC)c(OC)c1)c1cncc2c(O)c(OCC)ccc12 [Compound 95, 7-Ethoxy-4-(1-(3,4,5-trimethoxyphenyl)vinyl)isoquinolin-8-ol hydrochloride] — within 1.5-fold, 49.7 nM
- CCOc1ccc2c(Cc3cc(OC)c(OC)c([N+](=O)[O-])c3)cncc2c1O [Compound 103, 4-(3,4-Dimethoxy-5-nitrobenzyl)-7-ethoxyisoquinolin-8-ol hydrochloride] — 2-fold higher, 138 nM
- CCOc1ccc2c(C(=O)c3cc(OC)c(OC)c(OC)c3)cncc2c1NS(=O)(=O)NC(=O)OC(C)(C)C [Compound 104, tert-Butyl N-(7-ethoxy-4-(3,4,5-trimethoxybenzoyl)isoquinolin-8-yl)sulfamoylcarbamate] — 1.8-fold lower, 38.8 nM
- CCOc1ccc2c(Cc3cc(OC)c(OC)c(OC)c3)cncc2c1Cl [Compound 106, 8-Chloro-7-ethoxy-4-(3,4,5-trimethoxybenzyl)isoquinoline hydrochloride] — 13-fold higher, 885 nM
- CCOc1ccc2c(Cc3cc(OC)c(OC)c(OC)c3)cncc2c1N=[N+]=[N-] [Compound 107, 8-Azido-7-ethoxy-4-(3,4,5-trimethoxybenzyl)isoquinoline] — 8.5-fold higher, 575 nM
- CCOc1ccc2c(C(=O)c3cc(OC)c(OC)c(OC)c3)cncc2c1N=[N+]=[N-] [Compound 108, 8-Azido-7-ethoxy-4-(3,4,5-trimethoxybenzoyl)isoquinoline] — within 1.5-fold, 74.8 nM
- CCOc1ccc2c(Cc3cc(OC)c(OC)c(OC)c3Cl)cncc2c1O [Compound 110, 4-(2-Chloro-3,4,5-trimethoxybenzyl)-7-ethoxyisoquinolin-8-ol hydrochloride] — within 1.5-fold, 68 nM

Source: patent US20130131018A1, “SUBSTITUTED ISOQUINOLINES AND THEIR USE AS TUBULIN POLYMERIZATION INHIBITORS” (Exonhit S.A., priority 2010, published 2013)
